# Laboratory results published in patent US10413552B2, “Method of treating medulloblastoma” (THE HOSPITAL FOR SICK CHILDREN, priority 2015, dated 2019).
# How the values were obtained:
# [1] = tested on: D425 and D458 medulloblastoma cell lines; assay: MTS cell proliferation assay in Group 3 medulloblastoma cell lines; type: cell-based; conditions: 48 hours treatment
# Description: (§1) FIG. 1 illustrates the cytotoxic effect of piperlongumine, alsterpaullone, rottlerin and flunarizine in Group 3 medulloblastoma cell lines. Established medulloblastoma cell lines (D425 and D458) and a fetal neural stem cell line (hf5281) were treated with various concentrations of (a) piperlongumine, (b) alsterpaullone, (c) rottlerin and (d) flunarizine for 48 hours. Cell viability was measured by MTS assay. Data represent mean of triplicates±SEM.
# (§2) D425 and D458 cells were grown as suspension cultures and seeded in 96-well microplates at 10,000 cells per well. Fetal normal human brain cells (hf5281) were grown as an adherent culture and seeded in 96-well microplates at 4,000 and 5,000 cells per well. Cells were treated for 48 h with different concentrations of Piperlongumine (PL; INDOFINE Chemical Company), alsterpaullone (ALP; A, G. Scientific), rottlerin (RTL; A. G. Scientific) and flunarizine (FZ; Sigma) or DMSO (control). Cell viability was determined by MTS proliferation assay (3-(4,5-dimethylthiazol-2-yl)-5-(3-carboxymethoxyphenyl)-2-(4-sulfophenyl)-2H-tetrazolium) and the absorbance was measured at 490 nm (CellTiter 96 Aqueous One Solution Reagent; Promega). Three independent experiments were performed with 16 repeats per treatment condition.
# [2] = tested on: hf5281 fetal normal human brain cells; assay: MTS cell proliferation assay in fetal normal human brain cells; type: cell-based; conditions: hf5281, up to the highest concentration tested of 10 μM
# Description: as §1, §2
# [3] = tested on: D458 cerebellar xenografts; assay: D458 intracranial medulloblastoma xenograft; type: in vivo, athymic nude mice; conditions: for medulloblastoma growth (bioluminescence imaging, H&E): D458-luciferase xenograft, vs DMSO-treated controls; for medulloblastoma growth (bioluminescence imaging, H&E) / survival: s.c. for 2 weeks; for survival / survival difference, log-rank test p: D458 xenograft; for survival: Kaplan-Meier; for survival difference, log-rank test p: vs vehicle control
# Description: (§3) Medulloblastoma intracranial xenografts were established in 5-6 week old athymic nude mice (Charles River Laboratories). Medulloblastoma cells (250,000 D425 and D458 cells) were implanted in the right cerebellum of mice. Six days after cell inoculation, animals were randomized into treatment cohorts, which included subcutaneous injections with vehicle control (10% DMSO), PL (50 mg/kg, daily for 2 weeks), ALP (30 mg/kg, daily for 2 weeks), RTL (20 mg/kg, every other day for 2 weeks) or FZ (50 mg/Kg, daily for 2 weeks).
# In animals bearing D458-GFP/Luciferase xenografts, bioluminescence imaging was performed at 6 days after intracranial injection. Mice with a detectable signal were included in the study and tumor growth was monitored at one-week intervals using the IVIS Spectrum Optical In-vivo Imaging System (Caliper Life Sciences).
# (§4) Animals with progressive neurological signs or weight loss greater than 20% were euthanized and the brains harvested and fixed in 10% formalin.
# (§5) The Kaplan-Meier estimate and a log-rank test were used to generate survival curves. Experiments were performed in triplicate and results were expressed as mean±SEM. Statistical analysis was performed using GraphPad Prism 5 Software.
# The efficacy of PL, ALP, RTL and FZ in established medulloblastoma xenografts representative of Group 3 medulloblastomas was then determined. D458 cells expressing luciferase were implanted in the right cerebellum of nude mice and bioluminescence imaging was performed at 6 days post inoculation. Animals with a detectable signal were treated by subcutaneous injection with PL (50 mg/kg, daily for 2 weeks), ALP (30 mg/kg, daily for 2 weeks), RTL (20 mg/kg, every other day for 2 weeks), FZ (50 mg/Kg, daily for 2 weeks) or vehicle control (10% DMSO).
# [4] = tested on: D425 cerebellar xenografts; assay: D425 intracranial medulloblastoma xenograft; type: in vivo, athymic nude mice; conditions: for survival: Kaplan-Meier; for medulloblastoma growth (H&E): vs control group
# Description: as §3, §4, §5
# [5] = tested on: D425 and D458 medulloblastoma cells; assay: Western blot, induction of apoptosis; type: cell-based; conditions: 48 h treatment
# Description: (§6) Cell lysates were prepared by adding RIPA buffer (Sigma) containing protease inhibitors (F. Hoffman-La Roche AG), 0.2 M sodium orthovanadate, 0.2 M sodium pyrophosphate and 0.2 M sodium fluoride. The Pierce BCA Protein Assay Kit (Thermo Scientific) was used to determine protein concentration. […] The following antibodies were used: PARP (1:1,000; Cell Signaling), AKT (1:1,000; Cell Signaling), phospho-AKT (1:2,000; Ser473, Cell Signaling), α-tubulin (1:1,000; Cell Signaling), anti-mouse IgG conjugated to horseradish peroxidase (1:5,000; Amersham Biosciences) and anti-rabbit IgG conjugated to horseradish peroxidase (1:5,000; Cell Signaling).
# (§7) To determine the mechanisms by which PL and ALP exert their antitumor effect, D425 and D458 medulloblastoma cells were treated with both drugs for 48 h.
# AKT pathway = assay: Western blot, AKT pathway inhibition; type: cell-based; conditions: 48 h treatment, D458 and D425 cells
# Description: as §6, §7
# [6] = tested on: D425 and D458 medulloblastoma cells; assay: Gene expression profiling and Gene Set Enrichment Analysis (GSEA) after treatment; type: cell-based, human
# Description: D425 and D458 medulloblastoma cells were treated with 5 μM of PL, 5 μM of ALP or DMSO (control) for 48 h. RNA isolation was performed using the RNeasy Mini Kit (Qiagen) and gene expression data were generated using the Human PrimeView Arrays. Gene Set Enrichment Analysis (GSEA) was performed using gene sets from the National Cancer Institute (NCI), Gene Ontology (GO), Kyoto Encyclopedia of Genes and Genomes (KEGG), Protein Families (PFAM) and Biocarta pathway databases. Significant gene sets were identified (FDR<0.05; p<0.01) and visualized in Cytoscape and Enrichment Map software.
# To identify downstream transcriptional events induced by ALP, genomic profiling of Group 3 medulloblastoma cell lines (D425 and D458) was conducted after treatment for 48 hours. […] Gene Set Enrichment Analysis (GSEA) was performed with gene sets compiled from the National Cancer Institute (NCI), Gene Ontology (GO), Kyoto Encyclopedia of Genes and Genomes (KEGG), Protein Families (PFAM) and Biocarta pathway databases. To visualize significant gene sets (FDR<0.05; p<0.01) as interaction networks, Cytoscape and Enrichment Map were used.
# [7] = D425 and D458, 5 μM, 48 h vs DMSO, rank 1
# [8] = D425 and D458, 5 μM, 48 h vs DMSO, rank 2
# [9] = D425 and D458, 5 μM, 48 h vs DMSO, rank 3
# [10] = D425 and D458, 5 μM, 48 h vs DMSO, rank 4
# [11] = D425 and D458, 5 μM, 48 h vs DMSO, rank 5
# [12] = D425 and D458, 5 μM, 48 h vs DMSO, rank 6
# [13] = D425 and D458, 5 μM, 48 h vs DMSO, rank 7
# [14] = D425 and D458, 5 μM, 48 h vs DMSO, rank 8
# [15] = D425 and D458, 5 μM, 48 h vs DMSO, rank 9
# [16] = D425 and D458, 5 μM, 48 h vs DMSO, rank 10
structure (smiles),measurement,setting,value
COc1cc(/C=C/C(=O)N2CCC=CC2=O)cc(OC)c1OC [piperlongumine],concentration at which cell proliferation was reduced,[1],5 µM
same,reduction in cell proliferation,[2],little reduction in cell proliferation
same,"medulloblastoma growth (bioluminescence imaging, H&E)",[3],Marked reduction in medulloblastoma growth
same,survival,[3],significant increase in survival
same,"survival difference, log-rank test p",[3],0.0011
same,survival,[4],significantly increase survival
same,medulloblastoma growth (H&E),[4],reduce medulloblastoma growth
same,apoptosis (Western blot),[5],induction of apoptosis
same,AKT pathway activation (Western blot),AKT pathway,AKT pathway inhibition
CC(=O)c1c(O)c(C)c(O)c(Cc2c(O)c3c(c(C(=O)/C=C/c4ccccc4)c2O)OC(C)(C)C=C3)c1O [rottlerin],concentration at which cell proliferation was reduced,[1],5 µM
same,reduction in cell proliferation,[2],little reduction in cell proliferation
same,"medulloblastoma growth (bioluminescence imaging, H&E)",[3],Marked reduction in medulloblastoma growth
same,survival,[3],significant increase in survival
same,"survival difference, log-rank test p",[3],0.0262
"O=C1Cc2c([nH]c3ccc([N+](=O)[O-])cc23)-c2ccccc2N1 [alsterpaullone, 9-nitro-7,12-dihydroindolo-[3,2-d][1]benzazepin-6(5)-one]",concentration at which cell proliferation was reduced,[1],1 µM
same,reduction in cell proliferation,[2],little reduction in cell proliferation
same,"medulloblastoma growth (bioluminescence imaging, H&E)",[3],Marked reduction in medulloblastoma growth
same,survival,[3],significant increase in survival
same,"survival difference, log-rank test p",[3],0.0043
same,survival,[4],significantly increase survival
same,medulloblastoma growth (H&E),[4],reduce medulloblastoma growth
same,apoptosis (Western blot),[5],induced apoptosis
same,AKT pathway activation (Western blot),AKT pathway,potently inhibited AKT pathway activation at lower concentrations than PL
same,GSEA enriched pathway Cell Cycle Mitotic: Regulation,[6]; [7],Down-Regulated
same,GSEA enriched pathway Systemic Lupus Erythematosus: Regulation,[6]; [7],Up-Regulated
same,GSEA enriched pathway Mitotic M M G1 Phases: Regulation,[6]; [8],Down-Regulated
same,GSEA enriched pathway RNA Pol 1 Promoter Opening: Regulation,[6]; [8],Up-Regulated
same,GSEA enriched pathway Amyloids: Regulation,[6]; [9],Up-Regulated
same,GSEA enriched pathway Mitotic Prometaphase: Regulation,[6]; [9],Down-Regulated
same,GSEA enriched pathway DNA Replication: Regulation,[6]; [10],Down-Regulated
same,GSEA enriched pathway Packaging of Telomere Ends: Regulation,[6]; [10],Up-Regulated
same,GSEA enriched pathway G2 M Checkpoints: Regulation,[6]; [11],Down-Regulated
same,GSEA enriched pathway Olfactory Signaling Pathway: Regulation,[6]; [11],Up-Regulated
same,GSEA enriched pathway Autoimmune Thyroid Disease: Regulation,[6]; [12],Up-Regulated
same,GSEA enriched pathway Metabolism of Non Coding RNA: Regulation,[6]; [12],Down-Regulated
same,GSEA enriched pathway Activation of the Pre Replicative Complex: Regulation,[6]; [13],Down-Regulated
same,GSEA enriched pathway Asthma: Regulation,[6]; [13],Up-Regulated
same,GSEA enriched pathway Cell Cycle: Regulation,[6]; [14],Down-Regulated
same,GSEA enriched pathway Class A1 Rhodopsin Like Receptors: Regulation,[6]; [14],Up-Regulated
same,GSEA enriched pathway Activation of ATR in Response to Replication Stress: Regulation,[6]; [15],Down-Regulated
same,GSEA enriched pathway Immunoregulatory Interactions Between a lymphoid and a non lymphoid Cell: Regulation,[6]; [15],Up-Regulated
same,GSEA enriched pathway Cell Cycle Checkpoints: Regulation,[6]; [16],Down-Regulated
same,GSEA enriched pathway RNA Pol 1 Transcription: Regulation,[6]; [16],Up-Regulated
same,gene expression change vs DMSO-treated cells,"[6]; D425 and D458, 48 hours, MYC, CDK7, RB1, CDK6, CCNB1, CDK5RAP2, CDK1, CDKN2C",down-regulation of genes involved in cell cycle
Fc1ccc(C(c2ccc(F)cc2)N2CCN(C/C=C/c3ccccc3)CC2)cc1 [flunarizine],survival,[3],not able to prolong survival
